Assays:
honey bees [1] = assay: Bee mortality in hoarding cages, 3c{3,6} sensed by smell; type: in vivo, Apis mellifera
Description: 3c{3,6} sensed by smell: Bees were maintained in the classic hoarding cages. The test was conducted on twenty freshly collected bees in hoarding cages as above. The method that was used for screening potentially harmful compounds was as described, for example, in Medrzycki et al., 2013 (J. Apicultural Res. 52 (4): UNSP 52.4.14, http://dx.doi.org/10.3896/IBRA.1.52.4.14, incorporated herein by reference in its entirety. The bees were provided with water and candy at lib. The experiments were conducted in ten sets in the presence of 30 μl of hexane containing 300 μg of the 3c{3,6} compound presented in Parafilm (5×5 cm); 30 μl of pure hexane was used for control. The experimental and control cages were kept in separate incubators at (28-30° C.) and RH (50-70%) and the bee mortality rate was recorded at 24, 48 and 72 hours. Survival of bees in control and treated groups at the end was similar (79-90%).

honey bees [2] = assay: Bee mortality in hoarding cages, 3c{3,6} provided in sugar solution; type: in vivo, Apis mellifera
Description: 3c{3,6} provided in sugar solution: The test was conducted on twenty freshly collected bees in hoarding cages as described above. […] In addition, no differences were apparent in the general behavior of the honeybees. Furthermore, honey bees can ingest compound 3c{3,6} without harm and without increase in mortality.

honey bee antennae = assay: Electroantennography (EAG) on honey bee antennae stimulated with nurse bee headspace odor; design: species or system Apis mellifera
Description: (§1) In the electroantennography (EAG), the Varroa foreleg or bee antennae were used for the assay. The organs were stimulated by puffs of nurse honeybee odor, or clean air (control). Briefly, once a foreleg or bee antenna preparation was found responsive to a positive stimulus, the tested chemical was blown over the leg/antenna with or without positive stimuli. Headspace of five nurse bees was used as a positive stimulus. This stimuli were selected for Varroa following the procedure described, for example, in Eliash, N. et al., (2014) PLoS One, (2014) 9(12): e116127, incorporated herein by reference in its entirety, and following dose response tests on nurse antennae challenged with headspace of 1, 5 and 10 nurse or forager bees. Electrophysiological responses of isolated Varroa foreleg and bee antennae were recorded using Synthech equipment, and the order of stimuli was as explained in Singh, K. N. et al., (2014) Apidologie, 46: 380-391, incorporated herein by reference in its entirety. The response amplitude was recorded for each stimulus and normalized relative to air.

Varroa foreleg = assay: Electroantennography (EAG) on Varroa foreleg stimulated with nurse bee headspace odor; design: species or system Varroa destructor
Description: as §1

Varroa mites = assay: Example 2 dose response assay on 10 mites per plate; type: in vivo, Varroa destructor; details: doses in microgram
Description: The experiments were conducted in glass petri dish under control environment as described above in Example 1. Two sets of experiments were conducted compound 3c{3,6}:
1. Dose response assay on 10 mites per plate. Doses are in microgram.
In the first assay the percentage of dead mites as function of exposure time to different quantities of the compound was measured. […] The effective doses are relatively high.

Varroa destructor mites = assay: Example 3 mite paralysis/death in the absence of bees; type: in vivo; details: no bees
Description: Experiments were performed in the dishes: i) dose response assays with a single compound at different doses of compound on the Parafilm (1 ng, 10 ng, 100 ng, 1 μg, 10 μg, 100 μg, 1 mg and 10 mg), ii) a screen with six compounds, all at a 1 mg dose, iii) an assay with blends of compounds 3c{3,6} and 3c{6,6}, and iv) one assay without bees (only to check for mite paralysis and death), with compounds 3c{3,6} and 3c{6,6}(pure or 1:1 blend), at 0.5 and 1 mg doses.
Compounds 3c{3,6}, 3c{6,6} were tested on mites in the absence of bees, alone and as a 1:1 blend. Mite paralysis and death were checked every 30 min, up to 4.5 h after initial exposure. Four doses were tested: 0.2, 0.5, 1 and 10 mg.

[3] = tested on: Varroa mites in honey bee colony; assay: Colony test with solid 3c{3,6} in organza bags; type: in vivo, Varroa destructor; details: after each addition of solid compound in sachets
Description: Colony test. One colony of two supers was treated with solid 3c{3,6}, delivered in organza bags. The colony was otherwise healthy (apart from having Varroa mites), and the bee cluster reached over both boxes. Above the top box was placed a queen excluder and a top-feeding box. The following treatments were done: i) Day 1: 4×60 mg with bags placed above the cluster in the top box (below the queen excluder) only; ii) After 30 days: 4×60 mg with bags placed above the cluster in the top box (below the queen excluder) only; iii) After an additional 14 days, 4×100 mg with two bags placed on top of the lower box (i.e. between the two boxes) and two bags placed on top of the cluster on the top box (just below the queen excluder) iv) After an additional 7 days, 4×100 mg was added and the bags from the previous week were kept in. On the third treatment two Pasteur pipettes with Porapak (wedged between glass wool plugs in the pipette) were installed, one in the middle of the top cluster, the other on the edge of the cluster. These were removed. The colony was fitted with a screened bottom platform and a white Varroa counting drawer underneath the screen. Mites on the counting drawer board were counted every few days.
Porapak cartridges were extracted with hexane:ethyl acetate (4:1) with 40 ng/μL of 1,4-dimethoxybenzene as internal standard. […]

Compound: C=CCOc1ccc(OCCC)cc1 [3c{3,6}, 1-allyloxy-4-propoxybenzene]
- Survival of bees at the end (honey bees [1]; 300 μg in 30 μl hexane on Parafilm, 72 hours, control and treated groups similar): 79-90%
- lethal effect to the honey bees (honey bees [1]; in vivo): No lethal effect
- effect on the honeybees (honey bees [2]): did not have negative effect
- bees died at the end of experiment (honey bees [2]; after 72 hours, treated group (control 21%)): 5%
- response of honey bee antennae towards nurse bee head space odor (honey bee antennae): not affected
- Varroa foreleg responses towards head space odor of nurse bees (Varroa foreleg): decreases
- percentage of dead mites as function of exposure time to different quantities (acaricidal effect, FIG. 1) (Varroa mites): clear and it is dose dependent
- mite paralysis+death (Varroa destructor mites; 0.2 mg, 4.5 h): 40%
- mite paralysis+death (Varroa destructor mites; 0.5 mg, 4.5 h): 80%
- mite paralysis or death (Varroa destructor mites; 1 mg, up to 4.5 h): 100%
- mite paralysis or death (Varroa destructor mites; 10 mg, 4.5 h): 100%
- number of mites found on the bottom board per day [3]: spike in the number of mites

Reference: US11540515B2, “Use of dialkoxybenzenes for control of honey bee mite varroa destructor” (Simon Fraser University, priority 2018, dated 2023)
